{"source": "patent US11466044B2", "about": "(WAYNE STATE UNIVERSITY, priority 2017, dated 2022)", "key": {"E coli wild type": {"system": "E coli wild type", "assay": "MIC by broth microdilution, wild type E coli", "type": "cell-based", "details": "for MIC / MIC50: Escherichia coli; for MIC: ATCC25922, strain AG212 E. coli (ATCC25922), read-out: MIC AG212 E. coli"}, "P aeruginosa": {"system": "P aeruginosa", "assay": "MIC by broth microdilution, P aeruginosa isolates", "type": "cell-based, Pseudomonas aeruginosa", "details": "for MIC: read-out: MIC AG220 P. aerugin; for MIC50: Pseudomonas aeruginosa"}, "[1]": {"system": "Klebsiella pneumonia AG215", "assay": "MIC by broth microdilution, Klebsiella pneumonia", "type": "cell-based", "details": "strain AG215 Klebsiella pneumonia; for MIC: Klebsiella pneumoniae, read-out: MIC AG215 K. pneumon"}, "[2]": {"system": "Acinetobacter baumannii pittii AG225", "assay": "MIC by broth microdilution, Acinetobacter baumannii", "type": "cell-based", "details": "strain AG225 Acinetobacter baumannii pittii"}, "[3]": {"system": "Enterobacter cloacae AG290", "assay": "MIC by broth microdilution, Enterobacter cloacae", "type": "cell-based", "details": "strain AG290 Enterobacter cloacae; for MIC: read-out: MIC AG290 E. cloacae"}, "M. smegmatis SZ380": {"system": "M. smegmatis SZ380", "assay": "MIC by broth microdilution, M. smegmatis", "details": "for MIC: Mycolicibacterium smegmatis, SZ380, read-out: MIC SZ380 M. smegmatis, strain SZ380 Mycobacterium smegmatis"}, "MRSA": {"system": "MRSA", "assay": "MIC by broth microdilution, MRSA isolates", "type": "cell-based", "details": "Table 1 (Example 2); for MIC50: Staphylococcus aureus, MRSA"}, "[4]": {"system": "E coli carrying specific resistance determinants", "assay": "MIC by broth microdilution, E coli carrying specific resistance determinants", "type": "cell-based", "details": "Table 2B (Example 2); for MIC50: Escherichia coli"}, "[5]": {"details": "strain AG220 Pseudomonas aeruginosa ATCC27853"}}, "note": "Where two headings read alike, the source gives them in different places."}
{"smiles": "CCO[C@@H]1C(CN)O[C@H](O[C@@H]2C(N)C[C@@H](N)C(O)[C@H]2O[C@@H]2O[C@H](CO)[C@H](OCCN)C2O)[C@@H](N)C1O", "note": "(stereo partly drawn) [Compound 073]", "values": [{"measurement": "MIC", "setting": "E coli wild type", "value": 8, "unit": "µg/mL"}, {"measurement": "MIC", "setting": "P aeruginosa; [5]", "value": "> 128", "unit": "µg/mL"}, {"measurement": "MIC", "setting": "[1]", "value": 4, "unit": "µg/mL"}, {"measurement": "MIC", "setting": "[2]", "value": 8, "unit": "µg/mL"}, {"measurement": "MIC", "setting": "[3]", "value": 4, "unit": "µg/mL"}, {"measurement": "MIC", "setting": "M. smegmatis SZ380", "value": 8, "unit": "µg/mL"}]}
{"smiles": "CC(C)(O)C1O[C@H](O[C@@H]2C(N)C[C@@H](N)C(O)[C@H]2O[C@@H]2O[C@H](CO)[C@H](O[C@H]3O[C@@H](CN)[C@@H](O)C(O)C3N)C2O)C(N)[C@@H](O)[C@@H]1O", "note": "(stereo partly drawn) [Compound 159]", "values": [{"measurement": "MIC50", "setting": "MRSA; strain AG38, read-out: MIC50 MRSA AG38", "value": "8 to 16", "unit": "µg/mL"}, {"measurement": "MIC50", "setting": "MRSA; strain AG39, read-out: MIC50 MRSA AG39", "value": "> 128", "unit": "µg/mL"}, {"measurement": "MIC50", "setting": "MRSA; strain AG42, read-out: MIC50 MRSA AG42", "value": "> 128", "unit": "µg/mL"}, {"measurement": "MIC50", "setting": "MRSA; strain AG44, read-out: MIC50 MRSA AG44", "value": "4 to 8", "unit": "µg/mL"}, {"measurement": "MIC", "setting": "E coli wild type", "value": 4, "unit": "µg/mL"}, {"measurement": "MIC50", "setting": "E coli wild type; BM13 (AG06) wt, Table 2A (Example 2), read-out: MIC50 E coli BM13 (AG06) wt", "value": 4, "unit": "µg/mL"}, {"measurement": "MIC50", "setting": "E coli wild type; pH430 WT, Table 2B (Example 2), read-out: MIC50 E coli pH430 WT", "value": "1 to 2", "unit": "µg/mL"}, {"measurement": "MIC50", "setting": "E coli wild type; strain AG01, Table 1 (Example 2), read-out: MIC50 E coli AG01", "value": 8, "unit": "µg/mL"}, {"measurement": "MIC50", "setting": "E coli wild type; strain AG03, Table 1 (Example 2), read-out: MIC50 E coli AG03", "value": 8, "unit": "µg/mL"}, {"measurement": "MIC50", "setting": "E coli wild type; strain AG55, Table 1 (Example 2), read-out: MIC50 E coli AG55", "value": 8, "unit": "µg/mL"}, {"measurement": "MIC50", "setting": "P aeruginosa; strain AG31, Table 1 (Example 2), read-out: MIC50 P aeruginosa AG31", "value": "> 128", "unit": "µg/mL"}, {"measurement": "MIC50", "setting": "P aeruginosa; strain AG32, Table 1 (Example 2), read-out: MIC50 P aeruginosa AG32", "value": "> 128", "unit": "µg/mL"}, {"measurement": "MIC50", "setting": "P aeruginosa; strain AG33, Table 1 (Example 2), read-out: MIC50 P aeruginosa AG33", "value": "> 128", "unit": "µg/mL"}, {"measurement": "MIC50", "setting": "P aeruginosa; strain AG86, Table 1 (Example 2), read-out: MIC50 P aeruginosa AG86", "value": "> 128", "unit": "µg/mL"}, {"measurement": "MIC", "setting": "P aeruginosa; [5]", "value": "> 64", "unit": "µg/mL"}, {"measurement": "MIC50", "setting": "[4]; read-out: MIC50 E coli AG036 ANT(4′,4″), AG036 ANT(4′,4″)", "value": "16 to 32", "unit": "µg/mL"}, {"measurement": "MIC50", "setting": "[4]; read-out: MIC50 E coli AG037 APH(3′)-III, AG037 APH(3′)-III", "value": "> 64", "unit": "µg/mL"}, {"measurement": "MIC50", "setting": "[4]; read-out: MIC50 E coli AG103 armA, AG103 armA", "value": "4 to 8", "unit": "µg/mL"}, {"measurement": "MIC50", "setting": "[4]; read-out: MIC50 E coli pH421 APH(3′)-I, pH421 APH(3′)-I", "value": "> 64", "unit": "µg/mL"}, {"measurement": "MIC50", "setting": "[4]; read-out: MIC50 E coli pH422 APH(3′)-II, pH422 APH(3′)-II", "value": "> 64", "unit": "µg/mL"}, {"measurement": "MIC50", "setting": "[4]; read-out: MIC50 E coli pH423 APH(3)-VI, pH423 APH(3)-VI", "value": 8, "unit": "µg/mL"}, {"measurement": "MIC50", "setting": "[4]; read-out: MIC50 E coli pH432 ANT(4′), pH432 ANT(4′)", "value": 2, "unit": "µg/mL"}, {"measurement": "MIC", "setting": "[1]", "value": "1 to 2", "unit": "µg/mL"}, {"measurement": "MIC", "setting": "[2]", "value": 4, "unit": "µg/mL"}, {"measurement": "MIC", "setting": "[3]", "value": 2, "unit": "µg/mL"}, {"measurement": "MIC", "setting": "M. smegmatis SZ380", "value": 2, "unit": "µg/mL"}]}
{"smiles": "CCCC(O)C1OC(OC2C(N)CC(N)C(O)C2OC2OC(CO)C(OC3OC(CN)C(O)C(O)C3N)C2O)C(N)C(O)C1O", "note": "(stereo not drawn) [Compound 142]", "values": [{"measurement": "MIC50 MRSA AG38", "setting": "MRSA; strain AG38", "value": 4, "unit": "µg/mL"}, {"measurement": "MIC50 MRSA AG39", "setting": "MRSA; strain AG39", "value": ">128", "unit": "µg/mL"}, {"measurement": "MIC50 MRSA AG42", "setting": "MRSA; strain AG42", "value": ">128", "unit": "µg/mL"}, {"measurement": "MIC50 MRSA AG44", "setting": "MRSA; strain AG44", "value": 2, "unit": "µg/mL"}, {"measurement": "MIC50 E coli BM13 (AG06) wt", "setting": "E coli wild type; BM13 (AG06) wt, Table 2A (Example 2)", "value": 1, "unit": "µg/mL"}, {"measurement": "MIC50 E coli pH430 WT", "setting": "E coli wild type; pH430 WT, Table 2B (Example 2)", "value": 1, "unit": "μg/ml"}, {"measurement": "MIC50 E coli AG01", "setting": "E coli wild type; strain AG01, Table 1 (Example 2)", "value": 8, "unit": "µg/mL"}, {"measurement": "MIC50 E coli AG03", "setting": "E coli wild type; strain AG03, Table 1 (Example 2)", "value": 8, "unit": "µg/mL"}, {"measurement": "MIC50 E coli AG55", "setting": "E coli wild type; strain AG55, Table 1 (Example 2)", "value": 8, "unit": "µg/mL"}, {"measurement": "MIC AG212 E. coli", "setting": "E coli wild type; strain AG212 E. coli (ATCC25922)", "value": 2, "unit": "µg/mL"}, {"measurement": "MIC50 P aeruginosa AG31", "setting": "P aeruginosa; strain AG31, Table 1 (Example 2)", "value": ">128", "unit": "µg/mL"}, {"measurement": "MIC50 P aeruginosa AG32", "setting": "P aeruginosa; strain AG32, Table 1 (Example 2)", "value": ">128", "unit": "µg/mL"}, {"measurement": "MIC50 P aeruginosa AG33", "setting": "P aeruginosa; strain AG33, Table 1 (Example 2)", "value": ">128", "unit": "µg/mL"}, {"measurement": "MIC50 P aeruginosa AG86", "setting": "P aeruginosa; strain AG86, Table 1 (Example 2)", "value": ">128", "unit": "µg/mL"}, {"measurement": "MIC AG220 P. aerugin", "setting": "P aeruginosa; [5]", "value": ">32", "unit": "µg/mL"}, {"measurement": "MIC50 E coli AG036 ANT(4′,4″)", "setting": "[4]; AG036 ANT(4′,4″)", "value": "32 to 64", "unit": "µg/mL"}, {"measurement": "MIC50 E coli AG037 APH(3′)-III", "setting": "[4]; AG037 APH(3′)-III", "value": ">32", "unit": "µg/mL"}, {"measurement": "MIC50 E coli AG103 armA", "setting": "[4]; AG103 armA", "value": 1, "unit": "µg/mL"}, {"measurement": "MIC50 E coli pH414 AAC(6′)-I", "setting": "[4]; pH414 AAC(6′)-I", "value": 1, "unit": "μg/ml"}, {"measurement": "MIC50 E coli pH415 AAC(6′)-II", "setting": "[4]; pH415 AAC(6′)-II", "value": 1, "unit": "μg/ml"}, {"measurement": "MIC50 E coli pH421 APH(3′)-I", "setting": "[4]; pH421 APH(3′)-I", "value": ">32", "unit": "μg/ml"}, {"measurement": "MIC50 E coli pH422 APH(3′)-II", "setting": "[4]; pH422 APH(3′)-II", "value": ">32", "unit": "μg/ml"}, {"measurement": "MIC50 E coli pH423 APH(3)-VI", "setting": "[4]; pH423 APH(3)-VI", "value": ">32", "unit": "μg/ml"}, {"measurement": "MIC50 E coli pH432 ANT(4′)", "setting": "[4]; pH432 ANT(4′)", "value": 1, "unit": "μg/ml"}, {"measurement": "MIC AG215 K. pneumon", "setting": "[1]", "value": 1, "unit": "µg/mL"}, {"measurement": "MIC AG225 A. baumannii", "setting": "[2]", "value": 2, "unit": "µg/mL"}, {"measurement": "MIC AG290 E. cloacae", "setting": "[3]", "value": 1, "unit": "µg/mL"}, {"measurement": "MIC SZ380 M. smegmatis", "setting": "M. smegmatis SZ380; strain SZ380 Mycobacterium smegmatis", "value": 0.5, "unit": "µg/mL"}]}
